In patent publication US20260061084A1, “FIBROBLAST ACTIVATION PROTEIN (FAP) INHIBITORS, FAP CONJUGATES, AND DIAGNOSTIC AND THERAPEUTIC USES THEREOF” (Nuclidium AG, priority 2022, published 2026):

Experiments:
[1] = tested on: HT-1080.hFAP tumor-bearing mice; assay: Biodistribution studies in xenografted mice; assay type: in vivo; conditions: for Biodistribution: Spleen / Biodistribution: Heart / Biodistribution: Liver / Biodistribution: Lung / Biodistribution: Stomach / Biodistribution: HT-1080.wt / Biodistribution: HT-1080.hFAP / Biodistribution: Intestine / Biodistribution: Pancreas / Biodistribution: Adrenal / Biodistribution: Kidneys / Biodistribution: Muscle / Biodistribution: Blood: i.v.; for Biodistribution: HT-1080.wt: FAP-negative tumor; for Biodistribution: HT-1080.hFAP: FAP-positive tumor; for Accumulation in FAP-positive (HT-1080.hFAP) tumor and murine-FAP-positive tissues, such as the bone marrow (bones): xenografted mice, 1 h and 4 h p.i.
Description: The tumors were allowed to grow to an average volume of 100-200 mm^3.
Biodistribution Studies: The xenografted mice were randomized (n=5 per group) and injected intravenously via the tail vein with the ^61Cu-labeled radioligands (100 μL, […], 0.8-1MBq). Mice were euthanized 1 h and 4 h p.i. by CO2 asphyxiation. Organs of interest and blood were collected, rinsed of excess blood, blotted dry, weighed, and counted in a […]. The samples were counted against a suitably diluted aliquot of the injected solution as the standard and the results are expressed as the percentage of the injected activity per gram of tissue (% I.A./g) ±SD.

[2] = tested on: Mice bearing FAP-positive and FAP-negative xenografts; assay: PET/CT imaging: remaining PET activity in the mouse body; assay type: in vivo
Description: The mice were euthanized by CO2 at 4 hours p.i., and static PET scans were acquired for 30 min.
PET/CT images were acquired using β-CUBE PET scanner system (Molecubes, Gent, Belgium), with a spatial resolution of 0.85 mm and an axial field-of-view of 13 cm. Dynamic PET scans were acquired for 60 min. All PET scans were decay corrected and reconstructed into a 192×192×384 matrix by an ordered subsets maximization expectation (OSEM) algorithm using 30 iterations, a voxel size of 400×400×400 μm a 15 min per frame. CT data was used to apply attenuation correction on the PET data. The CT was imaged supine, head first, using the NanoSPECT/CTTM scanner (Bioscan Inc.). Topograms and helical CT scans of the whole mouse were first acquired using the following parameters: X-ray tube current: 177 μA, X-ray tube voltage 45 kVp, 90 seconds and 180 frames per rotation, pitch 1. CT images were reconstructed using CTReco (version r1.146), with a standard filtered back projection algorithm (exact cone beam) and post-filtered (RamLak, 100% frequency cut-off), resulting in a pixel size of 0.2 mm. Co-registered PET/CT images were visualized using maximum intensity projection (MIP) with VivoQuant software (version 4.0).

[3] = tested on: HT-1080.hFAP (FAP-positive) cells; assay: In vitro cellular uptake (cell surface-bound and internalized fractions); assay type: cell-based, human; conditions: 37° C., specific uptake (HT-1080.wt subtracted)
Description: The cellular uptake was studied in vitro using intact cells seeded in 6-well plates overnight. […] At each investigated time point, the medium containing the unbound (free) radiotracer was removed, followed by two washing steps with ice-cold phosphate-buffered saline. The cells were then treated 2×5 min with ice-cold glycine solution (0.05 M, pH 2.8) to detach the cell surface-bound radiotracer (acid released). Afterwards, the cells containing the internalized radiotracer were detached with 1 M NaOH at 37° C. and collected for measurement. The amount of specific cell surface-bound and internalized radiotracer is expressed as percentage of the total applied activity, after subtracting the non-specific values.
The cells were then preconditioned in 360 μL of assay medium (MEM medium without supplements) at 37° C. for 60 min. 40 μL of a 2 nM solution of ^61Cu-labeled radioligand was added and the cells were incubated at 37° C. The cellular uptake was interrupted at different time points (15 min, 1 hour and 4 hours), by washing twice with ice-cold PBS. Cell surface-bound radioligand was obtained by washing cells twice with ice-cold glycine buffer (pH 2.8), followed by a collection of the internalized fraction with 1 M NaOH. The activity in each fraction was measured in a […] (Cobra II).

Row | Biodistribution: Spleen ([1]; 1 hour p.i.) [% I.A./g] | Biodistribution: Heart ([1]; 4 hours p.i.) [% I.A./g] | Biodistribution: Liver ([1]; 4 hours p.i.) [% I.A./g] | Biodistribution: Lung ([1]; 4 hours p.i.) [% I.A./g] | Biodistribution: Spleen ([1]; 4 hours p.i.) [% I.A./g] | Biodistribution: Stomach ([1]; 4 hours p.i.) [% I.A./g] | Biodistribution: HT-1080.wt ([1]; 1 hour p.i.) [% I.A./g] | Biodistribution: HT-1080.wt ([1]; 4 hours p.i.) [% I.A./g] | Biodistribution: HT-1080.hFAP ([1]; 1 hour p.i.) [% I.A./g] | Biodistribution: HT-1080.hFAP ([1]; 4 hours p.i.) [% I.A./g] | Accumulation in FAP-positive (HT-1080.hFAP) tumor and murine-FAP-positive tissues, such as the bone marrow (bones) [1] | Biodistribution: Intestine ([1]; 1 hour p.i.) [% I.A./g] | Biodistribution: Liver ([1]; 1 hour p.i.) [% I.A./g] | Biodistribution: Stomach ([1]; 1 hour p.i.) [% I.A./g] | Structure (SMILES) | Cell surface fraction ([3]; 15 min) | Internalized fraction ([3]; 30 min) | Cell surface fraction ([3]; 60 min) | Internalized fraction ([3]; 60 min) | Cell surface fraction ([3]; 240 min) | Internalized fraction ([3]; 240 min) | other results
1 | 0.8 ± 0.1 | 0.7 ± 0.1 | 1.0 ± 0.2 | 0.8 ± 0.2 | 0.5 ± 0.1 | 0.7 ± 0.1 | 4.5 ± 0.6 | 2.1 ± 0.5 | 12.6 ± 1.5 | 7.1 ± 3.0 | high accumulation | – | – | – | N#CC1CC(F)(F)CN1C(=O)CNC(=O)c1ccnc2ccc(NC(=O)CCC(=O)NCCNC(=O)CCC(C(=O)O)N3CCN(CC(=O)[O-])CCN(CC(=O)[O-])CC3)cc12.[61Cu+2] (stereo not drawn) [[^61Cu]Cu-NODAGA-1] | 1.2 ± 0.3 % of the applied activity | 26.2 ± 3.5 % of the applied activity | 1.4 ± 0.3 % of the applied activity | 29.9 ± 1.8 % of the applied activity | 1.3 ± 0.2 % of the applied activity | 29.3 ± 1.8 % of the applied activity | Retention in the body (remaining PET activity 4 h p.i.), in words [2]: highest retention in the body
2 | 0.7 ± 0.1 | 0.7 ± 0.1 | 0.8 ± 0.2 | 1.0 ± 0.1 | 0.5 ± 0.1 | 0.6 ± 0.1 | 3.1 ± 0.0 | 2.5 ± 0.2 | 8.4 ± 1.4 | 7.7 ± 0.4 | – | 1.0 ± 0.4 | 0.9 ± 0.0 | 1.0 ± 0.1 | CN(CCCN1CCN(C(=O)CCC(C(=O)O)N2CCN(CC(=O)[O-])CCN(CC(=O)[O-])CC2)CC1)c1ccc2nccc(C(=O)NCC(=O)N3CC(F)(F)CC3C#N)c2c1.[61Cu+2] (stereo not drawn) [[^61Cu]Cu-NODAGA-FAPI-46, reference compound] | 0.9 ± 0.3 % of the applied activity | 24.3 ± 2.3 % of the applied activity | 1.2 ± 0.4 % of the applied activity | 36.1 ± 1.6 % of the applied activity | 1.7 ± 0.4 % of the applied activity | 50.0 ± 6.0 % of the applied activity | Biodistribution: Pancreas ([1]; 1 hour p.i.): 2.0 ± 0.2 % I.A./g; Biodistribution: Adrenal ([1]; 4 hours p.i.): 2.0 ± 0.2 % I.A./g; Biodistribution: Intestine ([1]; 4 hours p.i.): 0.6 ± 0.2 % I.A./g; Biodistribution: Kidneys ([1]; 4 hours p.i.): 1.0 ± 0.1 % I.A./g; Retention in the body (remaining PET activity 4 h p.i.), in words [2]: highest retention in the body
3 | 0.4 ± 0.1 | 0.3 ± 0.0 | 0.6 ± 0.1 | 0.4 ± 0.0 | 0.2 ± 0.0 | 0.3 ± 0.1 | 1.4 ± 0.2 | 0.9 ± 0.1 | 3.5 ± 1.0 | 4.0 ± 0.6 | high accumulation | 0.5 ± 0.1 | 0.6 ± 0.1 | 0.6 ± 0.1 | CN(C(=O)CCC(=O)NCCNC(=O)CCC(C(=O)O)N1CCN(CC(=O)[O-])CCN(CC(=O)[O-])CC1)c1ccc2nccc(C(=O)NCC(=O)N3CC(F)(F)CC3C#N)c2c1.[61Cu+2] (stereo not drawn) [[^61Cu]Cu-NODAGA-2] | 1.2 ± 0.6 % of the applied activity | 20.7 ± 5.5 % of the applied activity | 1.4 ± 0.5 % of the applied activity | 27.0 ± 6.9 % of the applied activity | 1.3 ± 0.5 % of the applied activity | 28.3 ± 7.5 % of the applied activity | Biodistribution: Heart ([1]; 1 hour p.i.): 0.6 ± 0.1 % I.A./g; Biodistribution: Lung ([1]; 1 hour p.i.): 0.8 ± 0.1 % I.A./g; Biodistribution: Muscle ([1]; 1 hour p.i.): 0.9 ± 0.1 % I.A./g; Biodistribution: Adrenal ([1]; 4 hours p.i.): 0.3 ± 0.1 % I.A./g; Biodistribution: Blood ([1]; 4 hours p.i.): 0.5 ± 0.1 % I.A./g; Biodistribution: Intestine ([1]; 4 hours p.i.): 0.3 ± 0.1 % I.A./g; Biodistribution: Kidneys ([1]; 4 hours p.i.): 1.0 ± 0.1 % I.A./g; Biodistribution: Muscle ([1]; 4 hours p.i.): 0.4 ± 0.1 % I.A./g; Biodistribution: Pancreas ([1]; 4 hours p.i.): 0.5 ± 0.0 % I.A./g
4 | 0.5 ± 0.1 | 0.5 ± 0.0 | 0.7 ± 0.1 | 0.7 ± 0.1 | 0.3 ± 0.0 | 0.5 ± 0.0 | 4.0 ± 2.2 | 1.8 ± 0.3 | 7.9 ± 0.9 | 6.4 ± 2.0 | high accumulation | 0.8 ± 0.2 | 0.9 ± 0.1 | 0.8 ± 0.1 | N#CC1CC(F)(F)CN1C(=O)CNC(=O)c1ccnc2ccc(NC(=O)CCC(=O)N3CCN(C(=O)CCC(C(=O)O)N4CCN(CC(=O)[O-])CCN(CC(=O)[O-])CC4)CC3)cc12.[61Cu+2] (stereo not drawn) [[^61Cu]Cu-NODAGA-3] | 0.9 ± 0.3 % of the applied activity | 26.6 ± 4.9 % of the applied activity | 1.2 ± 0.4 % of the applied activity | 36.9 ± 5.3 % of the applied activity | 1.4 ± 0.4 % of the applied activity | 39.4 ± 4.8 % of the applied activity | Biodistribution: Heart ([1]; 1 hour p.i.): 0.7 ± 0.1 % I.A./g; Biodistribution: Blood ([1]; 4 hours p.i.): 0.9 ± 0.0 % I.A./g; Biodistribution: Intestine ([1]; 4 hours p.i.): 0.4 ± 0.1 % I.A./g; Biodistribution: Kidneys ([1]; 4 hours p.i.): 1.0 ± 0.2 % I.A./g; Biodistribution: Pancreas ([1]; 4 hours p.i.): 0.9 ± 0.0 % I.A./g
